Results as given in PMC8325370 (Proceedings of the National Academy of Sciences of the …, 2021).

Molecular target: T1, homomeric A2 channels (wt CNGA2) (Rattus norvegicus, UniProt Q00195)
T1 sequence (Q00195 1-664): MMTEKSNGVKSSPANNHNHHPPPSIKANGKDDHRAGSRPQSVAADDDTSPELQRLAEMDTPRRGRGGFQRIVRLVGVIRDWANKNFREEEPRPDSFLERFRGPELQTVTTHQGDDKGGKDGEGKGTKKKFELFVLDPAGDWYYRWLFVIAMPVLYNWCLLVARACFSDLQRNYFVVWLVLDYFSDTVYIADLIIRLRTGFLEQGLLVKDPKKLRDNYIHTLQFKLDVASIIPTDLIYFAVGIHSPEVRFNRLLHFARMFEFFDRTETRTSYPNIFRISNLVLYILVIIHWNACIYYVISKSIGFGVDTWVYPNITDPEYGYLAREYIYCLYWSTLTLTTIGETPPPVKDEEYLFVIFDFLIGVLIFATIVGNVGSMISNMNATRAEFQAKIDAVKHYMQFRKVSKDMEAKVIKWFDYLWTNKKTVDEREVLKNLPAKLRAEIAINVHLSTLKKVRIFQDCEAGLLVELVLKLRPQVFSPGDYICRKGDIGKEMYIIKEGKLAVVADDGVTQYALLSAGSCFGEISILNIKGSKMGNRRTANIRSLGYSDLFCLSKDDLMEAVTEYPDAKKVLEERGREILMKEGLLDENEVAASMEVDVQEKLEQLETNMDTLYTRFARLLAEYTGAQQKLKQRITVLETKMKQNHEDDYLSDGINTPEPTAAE
Test: inside-out patch clamp, macroscopic current
Assay type: biochemical
Settings: agonist; +100 mV, 150 mM KCl, pH 7.4; Xenopus oocytes

Nc1nc2c(ncn2[C@@H]2O[C@@H]3COP(=O)(O)O[C@H]3[C@H]2O)c(=O)[nH]1 [cGMP]
EC50: concentration–activation relationships to homomeric A2 channels
